The results in this text go back to patent publication US12427135B2 (priority 2019, dated 2025).

A word on the Kd: it is the equilibrium constant for the complex coming apart. Usually IC50 stands for the point on the concentration scale where inhibition reaches its midpoint. Read a high IC50 as weaker potency. A word on the inhibition: it is the change of the read-out against control, counted positive when it falls.

Assay [1] deals with T1, RTA (Ricinus communis (Castor bean), UniProt P02879). In kind it is binding.
The target of assay [2] is T1, RTA. In words: biochemical. Format: biochemical. The conditions noted are these: for inhibition at 50 µM: read-out: Percent inhibition at 50 μM.
The target of the next assay is Stx2a holotoxin (Escherichia phage 933W (Bacteriophage 933W), UniProt P09385). In words: cell-based. In kind it is cell-based.
Stx2a holotoxin, sequence (P09385 23-319 limits assumed): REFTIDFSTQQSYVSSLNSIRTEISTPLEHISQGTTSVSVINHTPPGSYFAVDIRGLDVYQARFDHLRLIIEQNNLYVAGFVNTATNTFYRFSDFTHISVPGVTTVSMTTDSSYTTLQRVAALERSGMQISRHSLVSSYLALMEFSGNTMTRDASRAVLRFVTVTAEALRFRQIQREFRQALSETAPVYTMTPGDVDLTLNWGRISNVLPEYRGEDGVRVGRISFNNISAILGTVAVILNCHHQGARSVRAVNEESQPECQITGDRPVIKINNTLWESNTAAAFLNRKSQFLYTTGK
The target in assay [3] is T2, Stx2A1 (Escherichia phage 933W (Bacteriophage 933W), UniProt P09385). In kind it is binding.
T2 sequence (P09385 23-272 limits assumed): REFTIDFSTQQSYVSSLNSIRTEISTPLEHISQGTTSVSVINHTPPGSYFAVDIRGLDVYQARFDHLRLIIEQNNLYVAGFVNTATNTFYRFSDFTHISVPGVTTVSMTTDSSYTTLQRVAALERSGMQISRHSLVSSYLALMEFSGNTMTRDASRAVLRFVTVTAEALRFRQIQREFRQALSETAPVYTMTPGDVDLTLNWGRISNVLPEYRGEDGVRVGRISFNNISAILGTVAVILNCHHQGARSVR
The target in assay [4] is T2, Stx2A1. Briefly: biochemical. Format: biochemical.
[5] abbreviates: Vero, read-out: % Inhibition Stx2a depurination in Vero cell.
[6] abbreviates: read-out: % inhibition Stx2A1 in yeast ribosome.

On RTA [1], `Cc1ccccc1-c1ccc(C(=O)O)s1` [RU-NT-070] had a Kd of 72 µM. This compound yielded an IC50 against RTA [2] of 19 µM.
`Cc1cc(C)c(-c2ccc(C(=O)O)s2)c(C)c1` [RU-NT-075]: the inhibition at 50 µM on RTA [2] is 45%.
For `O=C(O)c1cc2c(s1)-c1ccccc1CC2` [drawing 373], at Stx2a holotoxin (setting [5]), the inhibition at 250 µM is 18% and the inhibition at 500 µM was 36%. This compound yielded a Kd at Stx2A1 [3] of 0.629 mM. For the same compound, at Stx2A1 [4] (setting [6]), the inhibition at 50 µM is 45%, the inhibition at 100 µM came out at 51% and the inhibition at 200 µM turned out to be 80%.
`Cc1cccc(O)c1-c1ccc(C(=O)O)s1` [RU-NT-113] displayed an equilibrium dissociation constant (Kd) at RTA [1] of 31 µM. Besides, the inhibition at 50 µM at RTA [2] was 69%.
At Stx2A1 [3], `O=C(O)c1csc(-c2cccc(Cl)c2)n1` showed a Kd of 0.579 mM. Moreover, on Stx2A1 [4] (setting [6]), the inhibition at 100 µM came to 83% and the inhibition at 200 µM was 91%.
Consider `O=C(O)c1ccc(Cc2cccs2)cc1` [CC70601, 4-(thien-2-ylmethyl) benzoic acid], for which the “binding in the binding level screen” value on RTA [1] is given as “bound RTA better than the positive controls”.
On to `O=C(O)c1cc2c(s1)-c1ccccc1CC2` [PD00589, reference compound], for which, at Stx2a holotoxin, the “protection against depurination by Stx2a holotoxin in Vero cells” value was “protected Vero cells against depurination”. The “inhibitory activity against Stx2A/Stx2A1 depurination in vitro” value against Stx2A1 [4] was “dose-dependent inhibition”.
On Stx2A1 [3], `Cc1ccc(-c2ccc(C(=O)O)o2)cc1` showed a dissociation constant Kd of 0.606 mM. In addition, on Stx2A1 [4] (setting [6]), the inhibition at 100 µM was 64% and the inhibition at 200 µM worked out at 70%.
Consider `O=C(O)c1ccc(-c2ccccc2)s1` [CC10501, 5-phenylthiophene-2-carboxylic acid], for which the “binding in the binding level screen” value at RTA [1] was “bound RTA better than the positive controls”. Besides, the “IC50 fold weaker than CC70601” value on RTA [2] stood at 5.6 fold.
The compound `O=C(O)c1ccc(-c2cccc3c2OCC3)s1` [RU-NT-105] registered a Kd on RTA [1] of 1180 ± 193 µM. Besides, the inhibition at 100 µM on RTA [2] (read-out: Percent inhibition at 100 μM) turned out to be 54 ± 7%.
`O=C(O)c1csc(-c2cccc(Cl)c2Cl)n1` displayed a dissociation constant (Kd) at Stx2A1 [3] of 0.487 mM. At Stx2A1 [4] (setting [6]), the inhibition at 100 µM was 82% and the inhibition at 200 µM is 62%.
At RTA [1], `Cc1cccc(F)c1-c1ccc(C(=O)O)s1` [RU-NT-110] returned a Kd of 93 µM. Also, the inhibition at 50 µM at RTA [2] was 61%.
Taken in the same sequence, the figures for `COc1cccc(C)c1-c1ccc(C(=O)O)s1` [RU-NT-111] were 51 µM and 66%.
Take `O=C(O)c1ccc(-c2ccc(Cl)cc2)o1`: at Stx2A1 [3], the Kd worked out at 0.575 mM. The same compound showed an IC50 against Stx2A1 [4] of 194 µM.
